Test results from PMC8849047, “Salicylate metal-binding isosteres as fragments for metalloenzyme inhibition” (Chemical Science, 2022).
Like-named read-outs stand apart in the source and are kept apart here.

Columns and labels:
[1] = tested on: influenza H1N1 N-terminal PA endonuclease (PAN); assay: PAN endonuclease inhibition assay (fluorescent ssDNA-oligo substrate); assay type: biochemical; conditions: 100 μM; standard deviation in parentheses
[2] = target: T1, Recombinant human glyoxalase I (GLO1) (Homo sapiens, UniProt Q04760); assay: GLO1 enzyme inhibition assay (absorbance at 240 nm); assay type: biochemical; conditions: for inhibition at 100 µM: read-out: %inhib GLO1; for IC50: dose-response curves, read-out: IC50 against GLO1
T1 construct: purchased R&D Systems 4959-GL
T1 sequence (Q04760 2-184 limits assumed): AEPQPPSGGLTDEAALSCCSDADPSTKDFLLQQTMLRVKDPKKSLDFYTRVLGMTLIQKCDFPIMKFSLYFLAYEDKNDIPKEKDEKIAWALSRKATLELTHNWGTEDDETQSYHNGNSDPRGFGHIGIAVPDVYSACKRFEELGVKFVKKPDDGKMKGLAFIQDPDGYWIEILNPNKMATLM
Protocol: To evaluate if the salicylate MBIs could serve as starting points for future FBDD campaigns, the MBI library was screened for inhibitory activity against human glyoxalase I (GLO1) at fragment concentrations of 100 μM (Table 2). […] Recombinant human glyoxalase I (GLO1) was purchased from R&D Systems (catalog #4959-GL). Assays were carried out in 0.1 M sodium phosphate, pH 7.0 buffer, utilizing 96-well clear UV plates (Corning UV Transparent Microplates, catalog #3635). A fresh solution of GSH (100 mM) and methylglyoxal (MG) (100 mM) was prepared in Millipore grade water. […] The substrate mixture was vortexed vigorously for 45 s and then allowed to sit at room temperature for 15 min. The initial well volume was 50 μL containing GLO1 (40 ng) and inhibitor. This protein and inhibitor mixture was incubated for 15–20 min prior to addition of the substrate. […] The enzyme activity was measured utilizing a Biotek Synergy HT or H4 plate reader by measuring absorbance at 240 nm every 1 min for a duration of 8 min. The rate of absorbance increase was compared for samples versus controls containing no inhibitor (set at 100% activity). The absorbance reading for background wells containing DMSO, buffer, and substrate (no enzyme or inhibitor) was subtracted from the experimental wells. […] Dose-response curves were generated, analysed and fitted to obtain IC50 values (see ESI ^†).
5. Single Point screening
Single point screening of salicylate MBI library against GLO1 at 100 µM inhibitor concentration. Chugai 1 (4,6-diphenyl-N-hydroxypyridone) 4 as positive control. […]
6. Dose-response curves against GLO1
The raw data from the GLO1 assay was background corrected and normalized from 0 to 100 with 100 being the largest mean of each dataset. A variable slope log-logistic model was chosen for curve fitting.
The corresponding datapoints are shown as empty bullets and were not included in the curve-fitting. The resulting restricted datasets were fitted according to a literature procedure setting the lower limit of the dose-response curve to zero. This compensates for the loss of information caused by trimming of the dataset. 5,6
Figure S7. Dose-response curve of 11 against GLO1.

[3] = target: T2, Human recombinant MMP-3 catalytic domain (Homo sapiens, UniProt P08254); assay: MMP-3 enzyme inhibition assay (chromogenic substrate, 412 nm); assay type: biochemical; conditions: standard deviation in parentheses, read-out: %inhib MMP-3
T2 construct: Human recombinant MMP-3 catalytic domain was purchased; purchased ENZO Life Sciences BML-SE109-9090
Protocol: To probe the selectivity of the salicylate MBIs, the library was screened against matrix metalloproteinase-3 (MMP-3) at fragment concentrations of 100 μM (Table 2).
Human recombinant MMP-3 catalytic domain was purchased from ENZO Life Sciences (catalog # BML-SE109-9090). Assays were carried out in clear Costar 96-well, half-area, flat-bottom assay plates (catalog # 80-2404). Each well contained a total volume of 100 μL including buffer (50 mM MES, 10 mM CaCl2, 0.05% Brij-35, 1 mM DNTB, pH 6.0), MMP-3 (2 U), and the fragment solution. After a 30 min incubation period at 37 °C, the reaction was initiated by the addition of 10 μL of chromogenic MMP-3 substrate (100 μM final concentration, Ac-Pro-Leu-Gly-[2-mercap-to-4-methyl-pentanoyl]-Leu-Gly-OC2H5, ENZO Life Sciences, catalog #BML-P125-0005). Absorbance was monitored at 412 nm using a Bio-Tek ELx 808 colorimetric plate reader, and measurements were recorded every minute for 10 min. The rate of absorbance increase was compared for samples versus negative controls (no inhibitor, arbitrarily set as 100% activity).
5. Single Point screening […]
Figure S5. Single point screening of salicylate MBI library against MMP-3 at 100 µM inhibitor
concentration. NNGH as positive control.

[4] = log P by potentiometric titration octanol/water (Sirius T3); log D7.4 calculated from pKa and log P; assay type: physicochemical; conditions: for logD: pH 7.4
Protocol: In addition to gaining an understanding about the metal coordinating properties of the salicylate MBIs by using [(Tp^Ph,Me)Zn(MBI)] model complexes, the physicochemical properties of the MBIs were also studied. The acidity (pKa) and lipophilicity (log P) were measured using potentiometric methods and the lipophilicity at physiological pH (log D7.4) was calculated from these two values (Table 1).[23–25]
(§1) Physicochemical properties were determined using a Sirius T3 instrument.[23–25] […] The pKa of a compound was determined by analysing each MBI sample in triplicate using potentiometric titrations. Experiments were typically performed over a pH range of 2.0–12.0. Standard deviations were derived from fitting all three replicate experiments. For water insoluble compounds methanol was added and the obtained apparent pKa (psKa) was extrapolated to the aqueous pKa by the Yasuda–Shedlovsky procedure. log P was determined via potentiometric titrations in the presence of varying ratios of octanol and water. The presence of octanol shifts the pKa of ionizable species, and based on the shifts, a log P can be determined. Measurements for log P determination were typically performed over a pH range of 2.0–12.0. Three experiments with varying ratios of water:octanol was performed, allowing for a standard deviation to be determined from the fitting of all measurements. MBI sample sizes were ∼0.5 mg for both pKa and log P measurements.

[5] = pKa by potentiometric titration (Sirius T3); assay type: physicochemical
Protocol: In addition to gaining an understanding about the metal coordinating properties of the salicylate MBIs by using [(Tp^Ph,Me)Zn(MBI)] model complexes, the physicochemical properties of the MBIs were also studied.
as §1

[6] = 100 μM, standard deviation in parentheses
[7] = calculated from measured pKa and log P, read-out: log D7.4
[8] = potentiometric, octanol/water, read-out: log P
[9] = potentiometric, 0.15 M KCl, triplicate, read-out: pKa (pKa,1)

T2 sequence (P08254 100-272 limits assumed): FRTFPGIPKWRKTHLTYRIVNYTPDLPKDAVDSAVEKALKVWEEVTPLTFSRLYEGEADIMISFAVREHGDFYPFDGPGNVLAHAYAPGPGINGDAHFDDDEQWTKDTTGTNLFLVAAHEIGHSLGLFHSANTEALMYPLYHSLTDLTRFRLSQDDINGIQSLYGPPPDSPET

| SMILES | %inhib Endo (PAN) [1] | inhibition at 100 µM [2, 6] [%] | inhibition at 100 µM [3] [%] | logP [4] | logD [4] | pKa ([5]; pKa (pKa,1)) | pKa ([5]; pKa) | further results |
| --- | --- | --- | --- | --- | --- | --- | --- | --- |
| COC(=O)c1ccccc1O [Compound 6] | 21 (6) % | 10 | 0 | 2.19 | 2.19 | 9.8 | – | – |
| COC(=O)c1cccc2nc[nH]c12 [Compound 14] | 37 (5) % | 19 | 7 | 1.73 | 1.73 | 4.51 | 12.3 | – |
| Oc1ccc(N2CCCCC2)cc1-c1nc2ccccc2s1 [Compound 11d] | – | – | – | – | – | – | – | IC50 [2]: > 20 µM |
| c1cc(-c2nnn[nH]2)c2[nH]cnc2c1 [Compound 22] | – | 50 | 74 | – | – | – | – | – |
| COC(=O)c1cccc2nn[nH]c12 [Compound 15] | 42 (6) % | 22 | 0 | 1.31 | 1.21 | 7.96 | – | – |
| COC(=O)c1cccc2oc(=O)[nH]c12 [Compound 13] | 46 (7) % | 31 | 0 | 1.24 | 1.22 | 8.78 | – | – |
| COC(=O)c1ccccc1NS(C)(=O)=O [Compound 12] | 33 (11) % | – | 12 | – | – | – | – | inhibition at 100 µM [2]: 18%; logD [4, 7]: 1.49; logP [4, 8]: 1.51; pKa [5, 9]: 8.86 |
| O=c1[nH]c2c(-c3nnn[nH]3)cccc2o1 [Compound 21] | 0% | 39 | 0 | – | – | – | – | – |
| CONC(=O)c1cccc2oc(=O)[nH]c12 [Compound 17] | 23 (6) % | 33 | 0 | 0.4 | 0.18 | 7.58 | 12.5 | – |
| Oc1ccccc1-c1nnn[nH]1 [Compound 8] | – | 24 | 6 | 1.54 | -0.46 | 4.63 | 10.9 | – |
| Oc1ccc(N2CCOCC2)cc1-c1nc2ccccc2s1 [Compound 11e] | – | – | – | – | – | – | – | IC50 [2]: > 50 µM |
| CONC(=O)c1ccccc1O [Compound 7] | 46 (8) % | 22 | 0 | 0.85 | 0.49 | 7.23 | 12 | – |
| OC1(c2cccc3nc[nH]c23)COC1 [Compound 23] | 22 (8) % | 10 | 4 | – | – | – | – | – |
| Oc1ccc(-c2cccc(Cl)c2)cc1-c1nc2ccccc2s1 [Compound 11c] | – | – | – | – | – | – | – | IC50 [2]: 3.3 ± 0.7 µM |
| O=C(O)c1cccc2oc(=O)[nH]c12 [Compound 3] | 11 (7) % | 29 | 0 | 1.28 | -2.47 | 3.65 | 10.3 | – |
| CS(=O)(=O)Nc1ccccc1-c1ncccn1 [Compound 25] | 21 (8) % | 19 | 0 | – | – | – | – | – |

| SMILES | %inhib Endo (PAN) [1] | inhibition at 100 µM [2, 6] [%] | inhibition at 100 µM [3] [%] | logP [4] | logD [4] | pKa ([5]; pKa (pKa,1)) | pKa ([5]; pKa) | further results |
| --- | --- | --- | --- | --- | --- | --- | --- | --- |
| O=C(O)c1cccc2nc[nH]c12 [Compound 4] | 0% | 38 | 3 | -1.4 | -2.09 | 3.04 | 5.49 | pKa ([5]; pKa (third printed value)): 12.8 |
| Oc1ccc(-c2ccccc2)cc1-c1nc2ccccc2s1 [Compound 11a] | – | – | – | – | – | – | – | IC50 [2]: 5 ± 1.5 µM |
| CS(=O)(=O)Nc1ccccc1-c1nnn[nH]1 [Compound 20] | 43 (4) % | – | 3 | – | – | – | – | inhibition at 100 µM [2]: 10%; logD [4, 7]: -0.43; logP [4, 8]: 1.18; pKa ([5]; potentiometric, 0.15 M KCl, triplicate, read-out: pKa): 9.52; pKa [5, 9]: 3.62 |
| Oc1ccccc1-c1ncccn1 [Compound 10] | – | 15 | 0 | – | – | – | – | – |
| Oc1ccccc1C1(O)COC1 [Compound 9] | 17 (9) % | 9 | 0 | 0.43 | 0.42 | 9.38 | – | – |
| O=C(O)c1cccc2nn[nH]c12 [Compound 5] | 22 (7) % | 20 | 0 | 1.38 | -2.37 | 3.49 | 9.29 | – |
| Cc1cccc(-c2ccc(O)c(-c3nc4ccccc4s3)c2)c1 [Compound 11b] | – | – | – | – | – | – | – | IC50 [2]: 6.8 ± 1.4 µM |
| CONC(=O)c1cccc2nc[nH]c12 [Compound 18] | 22 (7) % | 20 | 0 | 0.05 | 0.01 | 4.23 | 8.4 | pKa ([5]; pKa (third printed value)): > 12 |
| O=c1cc(-c2ccccc2)cc(-c2ccccc2)n1O [1-hydroxy-4,6-diphenylpyridin-2(1H)-one, reference compound] | – | – | – | – | – | – | – | GLO1 inhibition by positive control ([2]; 50 μM): complete inhibition |
| CONC(=O)c1cccc2nn[nH]c12 [Compound 19] | 31 (7) % | 17 | 0 | 0.75 | 0.22 | 6.99 | 9.93 | – |
| CS(=O)(=O)Nc1ccccc1C(=O)O [Compound 2] | 1 (9) % | 18 | 11 | 1.39 | -2.97 | 3.04 | 10.8 | – |
| Oc1ccc(-c2ccoc2)cc1-c1nc2ccccc2s1 [Compound 11g] | – | – | – | – | – | – | – | IC50 [2]: 6.9 ± 2.8 µM |
| CONC(=O)c1ccccc1NS(C)(=O)=O [Compound 16] | 44 (6) % | 16 | 0 | 0.12 | -0.33 | 7.15 | 11.3 | – |
| Oc1ccc(N2CCCC2)cc1-c1nc2ccccc2s1 [Compound 11f] | – | – | – | – | – | – | – | IC50 [2]: 4.4 ± 1.8 µM |
| OC1(c2cccc3nn[nH]c23)COC1 [Compound 24] | 32 (8) % | 19 | 0 | – | – | – | – | – |
